Data: patent US20240034929A1, “SCINTILLATION MATERIALS AND METHODS” (Florida State University Research Foundation, Inc., priority 2022, published 2024)

Experiment: Thermogravimetric analysis (thermal stability)
Assay type: physicochemical
Conditions: heated from room temperature to 700° C. at 5° C./min under argon flux
Source text: More detailed crystallographic results are provided in FIGS. 17a and 17b and the table in FIG. 7. The 0D structure at the molecular level was clearly observed in (TPA-P)2ZnBr4 with ZnBr4^2− tetrahedrons completely isolated and surrounded by TPA-P^+ cations. The zinc center adopted a typical tetra-coordinated geometry bonded to the bromide ions, with an average Zn—Br bond length of 2.41 Å and bond angle of 109.740 (see also the table in FIG. 8).
Thermal Stability Analysis: TGA studies were done using a TA instruments Q600 system. The sample was heated from room temperature to 700° C. at a 5° C./min rate under an argon flux of 100 ml/min.

## CCC[n+]1ccc(-c2ccc(N(c3ccccc3)c3ccccc3)cc2)cc1.[Br-] [TPA-PBr, 4-(4-(diphenylamino)phenyl)-1-(Propyl)-pyrindin-lium bromide]
  onset weight loss (thermogravimetric analysis): 211 °C
